# Values of other authors, collected in article PMC3880013, “Toward an Understanding of Agonist Binding to Human Orexin-1 and Orexin-2 Receptors with G-Protein-Coupled Receptor Modeling and Site-Directed Mutagenesis” (Biochemistry, 2013).
# Read-outs that look alike come from different tables or passages of the source. Marks after values point to notes of the source that are not given here. Where no end group is shown, it is not given here.
# Experiments:
# hOX1 H344A = conditions: cited from earlier work; for ratio EC50(mut)/EC50(WT): hOX1 H344A (7.39) relative to wild type, [Ca2+]i response, ref 37 Malherbe et al.
# Excerpt: Other mutations had no major effect on efficacy. || An additional residue that plays a key role in OX receptor agonist binding and activation by Orexin peptides is H^7.39. […] We observed that in OX1, H^7.39 interacts with residues L16 and L20 of helix 1 of OxA (see Figure 6A). […] On the other hand, in OX2, H^7.39 interacts with L20 and not with L16 (see Figure 6B), and ...
# hOX2 W214A = test system: hOX2 W214A; design: method as in earlier work; conditions: hOX2 W214A (45.54) relative to wild type, [Ca2+]i response, ref 37 Malherbe et al., cited from earlier work
# hOX2 Y317A = conditions: cited from earlier work; for ratio EC50(mut)/EC50(WT): hOX2 Y317A (6.48) relative to wild type, [Ca2+]i response, ref 37 Malherbe et al.
# Excerpt: D211^45.51 is in the proximity of L19. L19 and L20 form hydrophobic interactions with W214^45.54 and H350^7.39, respectively. […] In the case of OX2, Y223^5.38 forms an interaction with H26 of OxA. F227^5.42 forms a ...
# hOX1 Y348A = hOX1 Y348A (7.43) relative to wild type; [Ca2+]i response; ref 37 Malherbe et al.; cited from earlier work
# Excerpt: (§1) Table 1 Comparison of the Effects of Different Mutations in hOX1 and hOX2 on the Binding Potencies of Orexin-A and Orexin-B ^a | column: hOX1 / ratio ^b of Orexin-A
# hOX1 Q126A = hOX1 Q126A (3.32) relative to wild type; [Ca2+]i response; ref 37 Malherbe et al.; cited from earlier work
# Excerpt: as §1
# hOX1 A127T = hOX1 A127T (3.33) relative to wild type; [Ca2+]i response; ref 37 Malherbe et al.; cited from earlier work
# Excerpt: as §1
# hOX1 Y224A = hOX1 Y224A (5.47) relative to wild type, [Ca2+]i response, ref 37 Malherbe et al., cited from earlier work
# Excerpt: (§2) Other mutations had no major effect on efficacy.
# hOX1 Y215A = hOX1 Y215A (5.38) relative to wild type, [Ca2+]i response, ref 37 Malherbe et al., cited from earlier work
# Excerpt: as §2
# hOX1 W206A = conditions: cited from earlier work; for ratio EC50(mut)/EC50(WT): hOX1 W206A (45.54) relative to wild type, [Ca2+]i response, ref 37 Malherbe et al.
# Excerpt: as §2
# hOX1 D203A = hOX1 D203A (45.51) relative to wild type, [Ca2+]i response, ref 37 Malherbe et al., cited from earlier work
# Excerpt: as §2
# hOX1 Y311A = conditions: cited from earlier work
# Excerpt: as §2
# hOX2 D211A = test system: hOX2 D211A; design: method as in earlier work; conditions: hOX2 D211A (45.51) relative to wild type, [Ca2+]i response, ref 37 Malherbe et al., cited from earlier work
# hOX2 F346A = test system: hOX2 F346A; design: method as in earlier work; conditions: hOX2 F346A (7.35) relative to wild type, [Ca2+]i response, ref 37 Malherbe et al., cited from earlier work
# hOX2 T111A = test system: hOX2 T111A; design: method as in earlier work; conditions: hOX2 T111A (2.61) relative to wild type, [Ca2+]i response, ref 37 Malherbe et al., cited from earlier work
# hOX2 Y232A = test system: hOX2 Y232A; design: method as in 2 sources, one per row (each row's own in cited_ref): ref 37 Malherbe et al. ||| ref 37 = [37]; PMID 20404073; doi:10.1124/mol.110.064584; Malherbe P.; Roche O.; Marcuz A.; Kratzeisen C.; Wettstein J. G.; Bissantz C. ( 2010 ) Mapping the Binding Pocket of Dual Antagonist Almorexant to Human Orexin 1 and Orexin 2 Receptors: Compariso; conditions: cited from earlier work; for ratio EC50(mut)/EC50(WT): hOX2 Y232A (5.47) relative to wild type, [Ca2+]i response, ref 37 Malherbe et al.
substance,measurement,setting,value
"Orexin-A (QPLPDCCRQKTCSCRLYELLHGAGNHAAGILTL; ends and bridges not checked; cysteine pairing not given here; UniProt O43612 34-66, looked up) [hypothalamic neuropeptide, 33 amino acids, two intramolecular disulfide bonds C6-C12 and C7-C14; natural OX1/OX2 agonist]",decrease in Emax,hOX1 H344A; OX1 H7.39 (H344) mutated to alanine,64.5%
same,ratio EC50(mut)/EC50(WT),hOX1 H344A,241.1 ^c fold
same,ratio EC50(mut)/EC50(WT),hOX1 H344A; listed as OxA,241.1 fold
same,ratio EC50(mut)/EC50(WT),hOX2 W214A,62.4 ^c fold
same,ratio EC50(mut)/EC50(WT),hOX2 W214A; listed as OxA,62.4 fold
same,ratio EC50(mut)/EC50(WT),hOX2 Y317A,17.7 ^c fold
same,ratio EC50(mut)/EC50(WT),hOX2 Y317A; listed as OxA,17.7 fold
same,relative Emax (decreases to),hOX2 Y317A; hOX2 Y317A compared with WT,49.6%
same,ratio EC50(mut)/EC50(WT),hOX1 Y348A,8.7 ^c fold
same,ratio EC50(mut)/EC50(WT),hOX1 Q126A,2.4 ^c fold
same,ratio EC50(mut)/EC50(WT),hOX1 A127T,1.8 ^c fold
same,ratio EC50(mut)/EC50(WT),hOX1 Y224A,84.4 ^c fold
same,ratio EC50(mut)/EC50(WT),hOX1 Y224A; listed as OxA,84.4 fold
same,ratio EC50(mut)/EC50(WT),hOX1 Y215A,407.8 ^c fold
same,ratio EC50(mut)/EC50(WT),hOX1 Y215A; listed as OxA,407.8 fold
same,ratio EC50(mut)/EC50(WT),hOX1 W206A,417.8 ^c fold
same,ratio EC50(mut)/EC50(WT),hOX1 W206A; listed as OxA,417.8 fold
same,decrease in the maximal efficacy (Emax),hOX1 W206A; hOX1 W206A compared with WT,45.0%
same,ratio EC50(mut)/EC50(WT),hOX1 D203A,408.2 ^c fold
same,ratio EC50(mut)/EC50(WT),hOX1 D203A; listed as OxA,408.2 fold
same,ratio EC50(mut)/EC50(WT),"hOX1 Y311A; hOX1 Y311A (6.48) relative to wild type, [Ca2+]i response, ref 37 Malherbe et al.",163.9 fold
same,decrease in the maximal efficacy (Emax),hOX1 Y311A; hOX1 Y311A compared with WT,53.4%
same,ratio EC50(mut)/EC50(WT),hOX2 D211A,416.1 ^c fold
same,ratio EC50(mut)/EC50(WT),hOX2 D211A; listed as OxA,416.1 fold
same,ratio EC50(mut)/EC50(WT),hOX2 F346A,54.5 ^c fold
same,ratio EC50(mut)/EC50(WT),hOX2 F346A; listed as OxA,54.5 fold
same,ratio EC50(mut)/EC50(WT),hOX2 T111A,243.5 ^c fold
same,ratio EC50(mut)/EC50(WT),hOX2 T111A; listed as OxA,243.5 fold
same,ratio EC50(mut)/EC50(WT),hOX2 Y232A,28.4 ^c fold
same,ratio EC50(mut)/EC50(WT),hOX2 Y232A; listed as OxA,28.4 fold
same,Emax (decreased),hOX2 Y232A; hOX2 Y232A compared with WT,44.9%
